Results taken from patent US20240217968A1, “PHARMACEUTICAL COMPOUND” (DUKE STREET BIO LIMITED, priority 2021, published 2024).

Target: T1, recombinant human Flag-tagged PARP7 (amino acids 456-657) (Homo sapiens, UniProt Q7Z3E1)
T1 construct: recombinant human Flag-tagged PARP7 (amino acids 456-657)
T1 sequence (Q7Z3E1 456-657): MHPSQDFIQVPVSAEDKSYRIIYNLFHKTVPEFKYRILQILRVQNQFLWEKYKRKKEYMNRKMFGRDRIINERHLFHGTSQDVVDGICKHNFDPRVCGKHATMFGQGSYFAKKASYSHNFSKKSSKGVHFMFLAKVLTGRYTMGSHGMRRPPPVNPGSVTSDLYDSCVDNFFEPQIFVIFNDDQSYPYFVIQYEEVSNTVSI
Experiment: PARP7 biochemical DELFIA assay (auto-MARylation)
Conditions: DELFIA readout, IC50 class
In short: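 Flag-PARP7 (456-657), 12.5-37.5 nM stock, captured on anti-FLAG wells, preincubated 30 min with compound, then auto-MARylated with biotin-NAD+ (15 μM stock) in HEPES pH 7.5/NaCl/DTT/BSA/Tween for 2-3 h at room temperature. NAD+ quench; Eu-streptavidin DELFIA read, Ex337/Em620 nm.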

IC50 [nM]	Compound
≤ 100	O=C(CCOCCc1cccc2c(=O)[nH]ncc12)N1CCN(c2nc3cc(F)ccc3o2)CC1 [Compound 199]
≤ 100	O=C(CCOCCn1cc(C(F)F)c2c(=O)[nH]ncc21)N1CCN(c2ccc(C(F)(F)F)cn2)CC1 [Compound 200]
≤ 100	CC(COCCn1nc(C(F)(F)F)c2c(=O)[nH]ncc21)C(=O)N1CCN(c2ncc(C(F)(F)F)cn2)CC1 (centres unmarked) [Compound 201]
≤ 100	CC(COCCn1nc(C(F)(F)F)c2c(=O)[nH]ncc21)C(=O)N1CCN(c2ncc(C(F)(F)F)cn2)CC1 (centres unmarked) [Compound 202]
≤ 100	CCn1cc(CCOCCC(=O)N2CCN(c3ncc(C(F)(F)F)cn3)CC2)c2cn[nH]c(=O)c21 [Compound 203, 1-ethyl-3-(2-(3-oxo-3-(4-(5-(trifluoromethyl)pyrimidin-2-yl)piperazin-1-yl)propoxy)ethyl)-1,6-dihydro-7H-pyrrolo[2,3-d]pyridazin-7-one]
100 to 1000	N#Cc1ccc(N2CCN(C(=O)c3cccc(Cc4cccc5c4CCCNC5=O)c3)CC2)nc1 [Compound 204]
≤ 100	O=C(CCOCCc1cccc2c(=O)[nH]ncc12)N1CCN(c2nc3ccc(Cl)cc3o2)CC1 [Compound 205]
≤ 100	CC(COCCc1cccc2c(=O)[nH]ncc12)C(=O)N1CCN(c2ncc(C(F)(F)F)cn2)CC1 (centres unmarked) [Compound 206]
100 to 1000	O=C(CCOCCc1cccc2c(=O)[nH]ncc12)N1CCN(c2ccc(C(F)(F)F)cc2)C(=O)C1 [Compound 207]
≤ 100	N#Cc1ccc2oc(N3CCN(C(=O)CCOCCc4cccc5c(=O)[nH]ncc45)CC3)nc2c1 [Compound 208]
≤ 100	CCC(OCCCC(=O)N1CCN(c2ncc(C(F)(F)F)cn2)CC1)c1cccc2c(=O)[nH]ncc12 (centres unmarked) [Compound 209]
≤ 100	CC(COCCC(=O)N1CCN(c2ccc(Cl)cn2)CC1)n1nc(C(F)(F)F)c2c(=O)[nH]ncc21 (centres unmarked) [Compound 211]
≤ 100	CC(COCCC(=O)N1CCN(c2ccc(Cl)cn2)CC1)n1nc(C(F)(F)F)c2c(=O)[nH]ncc21 (centres unmarked) [Compound 212]
≤ 100	O=C(CCOCCc1cccc2c(=O)[nH]ncc12)N1CCN(c2nc3ccccc3[nH]2)CC1 [Compound 213]
≤ 100	Cn1c(N2CCN(C(=O)CCOCCc3cccc4c(=O)[nH]ncc34)CC2)nc2ccccc21 [Compound 214]
≤ 100	O=C(CCOCCn1nc(C(F)(F)F)c2c(=O)[nH]ncc21)N1CCN(c2nc3cc(F)ccc3o2)CC1 [Compound 215, 1-(2-(3-(4-(5-fluorobenzo[d]oxazol-2-yl)piperazin-1-yl)-3-oxopropoxy)ethyl)-3-(trifluoromethyl)-1,5-dihydro-4H-pyrazolo[3,4-d]pyridazin-4-one]
≤ 100	O=C1CCc2cnc(N3CCN(C(=O)CCOCCc4cccc5c(=O)[nH]ncc45)CC3)nc2N1 [Compound 216]
≤ 100	Cc1ccc(CCOCCC(=O)N2CCN(c3ncc(C(F)(F)F)cn3)CC2)c2cn[nH]c(=O)c12 [Compound 217]
≤ 100	N#Cc1ccc2nc(N3CCN(C(=O)CCOCCn4nc(C(F)(F)F)c5c(=O)[nH]ncc54)CC3)oc2c1 [Compound 218]
100 to 1000	O=C(CCOCCc1cccc2c(=O)[nH]ncc12)N1CCC(c2cc(C(F)(F)F)on2)CC1 [Compound 219]
≤ 100	O=C(CCOCCc1cccc2c(=O)[nH]ncc12)N1CCN(c2ncc3c(n2)NCCC3)CC1 [Compound 220]
≤ 100	O=C(CCOCCc1ccc(Cl)c2c(=O)[nH]ncc12)N1CCN(c2ncc(C(F)(F)F)cn2)CC1 [Compound 226]
≤ 100	O=C(CCOCCc1c(F)ccc2c(=O)[nH]ncc12)N1CCN(c2ncc(C(F)(F)F)cn2)CC1 [Compound 229]
≤ 100	Cc1c(C)n(CCOCCC(=O)N2CCN(c3ncc(C(F)(F)F)cn3)CC2)c2cn[nH]c(=O)c12 [Compound 230]
≤ 100	O=C(CCOCCc1cncc2c(=O)[nH]ncc12)N1CCN(c2ncc(C(F)(F)F)cn2)CC1 [Compound 231]
≤ 100	O=C(CCOCCn1cc(C(F)(F)F)c2c(=O)[nH]ncc21)N1CCN(c2ncc(Cl)cn2)CC1 [Compound 232]
